Structures are written as SMILES.

Data set [1] can be described thus: Metabolic stability evaluation in human liver microsomes. It is filed as in vitro ADME. Conditions: pH 7.4, human liver microsomes 0.5 mg/mL, compound 1 μM, NADPH, 37° C.; for microsomal CLint at 1 μM: read-out: CLint, experiment in human liver microsomes; for half-life at 1 μM: read-out: t1/2, experiment in human liver microsomes. The procedure: (§1) Experiments in microsomes: Human liver microsomes: 0.5 mg/mL, Xenotech; Rat liver microsomes: 0.5 mg/mL, Xenotech; Coenzyme (NADPH/NADH): 1 mM, Sigma Life Science; Magnesium chloride: 5 mM, 100 mM phosphate buffer (pH 7.4).
(§2) Preparation of stock solution: A certain amount of powder of the example compounds was accurately weighed and dissolved in DMSO to 5 mM respectively.
(§3) Preparation of phosphate buffer (100 mM, pH7.4): A pre-formulated 150 mL potassium dihydrogen phosphate (0.5 M) was mixed with 700 mL of dibasic potassium phosphate (0.5M). The pH of the mixture was adjusted to 7.4 with 0.5 M dibasic potassium phosphate solution. The mixture was diluted 5-fold with ultrapure water before use, and magnesium chloride was added to obtain the phosphate buffer (100 mM) containing 100 mM potassium phosphate, 3.3 mM magnesium chloride, pH 7.4.
(§4) A NADPH regeneration system solution (containing 6.5 mM NADP, 16.5 mM G-6-P, 3 U/mL G-6-P D, 3.3 mM magnesium chloride) was prepared and placed on wet ice before use.
(§5) Preparation of stop solution: acetonitrile solution containing 50 ng/mL propranolol hydrochloride and 200 ng/mL tolbutamide (internal standard). 25057.5 μL of phosphate buffer (pH 7.4) was taken into a 50 mL centrifuge tube, to which 812.5 μL human liver microsomes were added, respectively, and mixed to obtain a liver microsome dilution solution with a protein concentration of 0.625 mg/mL. 25057.5 μL of phosphate buffer (pH 7.4) was taken into a 50 mL centrifuge tube, to which 812.5 μL SD rat liver microsomes were added, respectively, and mixed to obtain a liver microsome dilution solution with a protein concentration of 0.625 mg/mL.
(§6) Incubation of the samples: The stock solution of the respective compounds was respectively diluted to 0.25 mM with an aqueous solution containing 70% acetonitrile, which were used as working solutions, ready for use. 398 μL of the dilution solution of human liver microsomes or rat liver microsomes were added to a 96-well incubation plate (N=2), respectively, and 2 μL of 0.25 mM working solution was added and mixed.
(§7) Metabolic stability assay: 300 μL of pre-chilled stop solution was added to each well of a 96-well deep well plate and placed on ice as the stop plate. The 96 well incubation plate and NADPH regeneration system were placed in a 37° C. water bath box, shaken at 100 rpm and pre-incubated for 5 min. 80 μL of incubation solution was taken out from each well of the incubation plate and added to the stop plate, mixed, and replenished with 20 μL of NADPH regeneration system solution as a 0-min sample. 80 μL of NADPH regeneration system solution was added to each well of the incubation plate to start the reaction and counting was started. […] 100 μL of the reaction solution was taken at 10, 30, and 90 min after reaction, respectively, added to the stop plate, and vortexed for 3 minutes to terminate the reaction. The stop plate was centrifuged for 4 min at 5000× g at 4° C. 100 μL of the supernatant was added to a 96-well plate to which 100 μL of distilled water was previously added, mixed, and analyzed by LC-MS/MS.
(§8) Data analysis: The peak areas of the corresponding compounds and internal standard were detected by LC-MS/MS system, and the ratio of the peak area of the compounds to the internal standard was calculated.
(§9) The metabolic stability in human and rat liver microsomes was evaluated by simultaneously testing and comparing the compounds disclosed herein and the non-deuterated compound. The non-deuterated compound Ixazomib was used as a control in the table.
Background: Liver microsomes are a subcellular fraction often used to study metabolism.

Data set [2] can be described thus: Metabolic stability evaluation in rat liver microsomes. In kind it is in vitro ADME. The conditions noted are these: SD, pH 7.4, rat liver microsomes 0.5 mg/mL, compound 1 μM, NADPH, 37° C.; for microsomal CLint at 1 μM: read-out: CLint, experiment in rat liver microsomes; for half-life at 1 μM: read-out: t1/2, experiment in rat liver microsomes. The procedure: as §1, §2, §3, §4, §5, §6, §7, §8, §9

Consider `[2H][C@@](CC(C)C)(NC(=O)CNC(=O)c1cc(Cl)ccc1Cl)B(O)O` [Compound I-2, (R)-(1-(2-(2,5-dichlorobenzamido)acetamido)-1-d-3-methylbutyl)boronic Acid], for which the microsomal CLint at 1 μM was determined as 46.5 µL/min/mg in data set [1] and 90.5 µL/min/mg in data set [2]. The half-life at 1 μM in data set [1] stood at 29.8 min; in data set [2], 15.3 min.

In the case of `[2H]C([2H])(NC(=O)c1cc(Cl)ccc1Cl)C(=O)N[C@@]([2H])(CC(C)C)B(O)O` [Compound I-4, (R)-(1-(2-(2,5-dichlorobenzamido)-2,2-d2-acetamido)-1-d-3-methylbutyl)boronic Acid], the microsomal CLint at 1 μM in data set [1] was 48.3 µL/min/mg; in data set [2], 90 µL/min/mg. The half-life at 1 μM in data set [1] is 28.7 min; in data set [2], 15.4 min.

As for `[2H]C([2H])(C(C)C)[C@H](NC(=O)CNC(=O)c1cc(Cl)ccc1Cl)B(O)O` [Compound I-3, (R)-(1-(2-(2,5-dichlorobenzamido)acetamido)-2,2-d2-3-methylbutyl)boronic Acid], in data set [1], the microsomal CLint at 1 μM came out at 47.3 µL/min/mg and the half-life at 1 μM turned out to be 29.3 min.

`CC(C)C[C@H](NC(=O)CNC(=O)c1cc(Cl)ccc1Cl)B(O)O` [Ixazomib, reference compound]: in data set [1], the microsomal CLint at 1 μM stood at 49.4 µL/min/mg and the half-life at 1 μM came to 28.1 min. Besides, in data set [2], the microsomal CLint at 1 μM was 97.3 µL/min/mg and the half-life at 1 μM amounted to 14.3 min.

For `[2H]C([2H])(C(C)C)[C@]([2H])(NC(=O)CNC(=O)c1cc(Cl)ccc1Cl)B(O)O` [Compound I-5, (R)-(1-(2-(2,5-dichlorobenzamido)acetamido)-1-d-2,2-d2-3-methylbutyl)boronic Acid], the results for the microsomal CLint at 1 μM in data set [1] and in data set [2] were 47.3 µL/min/mg and 97.8 µL/min/mg, respectively. The values for the half-life at 1 μM in data set [1] and in data set [2] were 29.3 min and 14.2 min, respectively.

Take `[2H]C([2H])(NC(=O)c1cc(Cl)ccc1Cl)C(=O)N[C@@H](CC(C)C)B(O)O` [Compound I-1, (R)-(1-(2-(2,5-dichlorobenzamido)-2,2-d2-acetamido)-3-methylbutyl)boronic acid]: in data set [2], the microsomal CLint at 1 μM is 81.3 µL/min/mg and the half-life at 1 μM worked out at 17.1 min.

The values are drawn from US10995103B2, “Substituted boric acid compound, pharmaceutical composition comprising same, and application thereof” (Shenzhen TargetRx, Inc., priority 2016, dated 2021).
